What was measured:
adjuvant arthritis = test: Adjuvant arthritis test (foot edema and osteoclasia); type: in vivo, rat (7-week-old female Lewis rats); settings: 20 mg/kg s.c., days 8-21; for Inhibition rate of osteoclasia with respect to control group: 22nd day, left and right hind legs, soft X-ray
osteoclasts = test: Inhibition of active-type vitamin D3-stimulated bone resorption (resorption pit formation on dentin slices); type: cell-based, mouse (ICR); settings: 10 nM active-type vitamin D3, 4 days
Text: In conditions of osteoporosis, it is thought that the balance between bone formation and bone resorption is lost, with bone resorption being accelerated. Bone resorption is thought to occur due to the activation and increase in the number of osteoclasts, and a model thereof is an experiment in which mouse osteocytes are planted on dentin slices, causing bone resorption due to the stimulation of active-type vitamin D3. Using this model, the bone resorption-inhibiting effects of the compounds according to the present invention were determined.
The femurs and tibias were separated from 10 to 15- day-old ICR mice, and minced in an α-MEM culture medium containing 5% fetal calf serum, and an osteoclast suspension was prepared containing bone marrow cells and bone matrix. The large bone fragments were removed using a nylon mesh, and the viable cells were stained using trypan blue staining, while the osteoclasts were stained using tartaric acid-resistant acidic phosphatase staining, and a cell suspension was prepared which contained the osteoclasts at a proportion of about 0.05-0.1%. The dentin was cut to thicknesses of 150 μm using a low-speed rotating diamond cutter, and punched with a puncher to the size of wells of a 96-well plate. The dentin slices were placed in a 96-well plate, and the cell suspension prepared as described above was placed thereupon to a concentration of 500 osteoclasts per well. As a stimulant, 10 nM active-type vitamin D3 was added thereto, and at the same time the preparations according to the present invention were added thereto to concentrations of 10 μM and 100 μM. The cells were cultured at 37° C. in 10% CO2 environment, and after 4 days' culture the resorption pits which formed on the dentin slices were stained with hematoxylin, and then observed under a microscope and counted. The rate of inhibition of resorption pit formation was calculated according to the following equation. [formula]
The results were indicated with "*" in cases where, based on statistical calculation using the Student t-test, the level of significance was P<0.05 and with "**" in cases where the level of significance was P<0.01 with respect to the active-type vitamin D3 -stimulated control group.

Rabbit cartilage cells = test: IL-1-inhibiting effect: proteoglycan degradation in IL-1-stimulated rabbit cartilage cells; type: cell-based, rabbit (New Zealand white); settings: IL-1-stimulated (30 units/ml rhIL-1β), 100 μM compound, 24 h
Experimental: Rabbit cartilage cells are separated from knee joint and cultured. When they are stimulated with IL-1, proteoglycan, the main constituent glycoprotein of cartilage cells, is degraded. Using this consequence as an index, the IL-1-inhibiting effects of the compounds according to the present invention were determined in the following manner.
Three-week-old male New Zealand white rabbits weighing 250 g-300 g were sacrified under diethyl ether anesthesia, and their knee joints were separated. The cartilaginous sections were cut out from the knee joint with a scalpel, and then immersed in CMF solution containing 0.14M sodium chloride, 4 mM potassium chloride, 0.4 mM sodium dihydrogen phosphate, 12 mM sodium bicarbonate, 0.2 mM potassium dihydrogen phosphate and 11 mM glucose. The cartilage was placed in 0.1% EDTA and incubated at 37° C. for 20 minutes. The supernatant was removed off, 0.15% trypsin was added to the mixture, and then that was incubated at 37° C. for 60 minutes. The mixture was washed 3 times with CMF solution, and then placed in […] and further treated at 37° C. for 105 minutes. […]
Each of the obtained counts was divided by the count at the initial addition of inorganic sulfuric acid, and expressed as a percentage. […]

[1] = tested on: Mouse Macrophage Cell Line J774-1; test: Inhibition of IL-1 production by LPS-stimulated mouse macrophage cell line J774-1 (IL-1 activity by thymocyte proliferation); type: cell-based; settings: 100 μM compound, 1 μg/ml LPS, 24 h, read-out: IL-1 production inhibition rate with respect to control group
Experimental: Effect Against Production of IL-1 by Mouse Macrophage Cell Line J774-1
With this cell line, the inhibitory effects to IL-1 production of the compounds according to the present invention were determined by the following procedure.
J774-1 cells were cultured in an RPMI-1640 culture medium containing 10% fetal calf serum and 50 μM of 2-mercaptoethanol, and prepared to a cell concentration of 2×10^5 cells/ml. The cell suspension was distributed into a 24-well plate to 1 ml per well, and cultured for 30 minutes. […]
A two-fold serial dilution was made of the above obtained sample in a 96-well multiplate to a volume of 50 μl per well, and 50 μl of the T cell suspension was added to each well. The T cells were cultured for 72 hours, and the IL-1 activity was determined by the rate of cell proliferation. The cell proliferation was calculated using as the value of the absorbance at 570 nm of the pigment produced upon reduction of 3-[4,5-dimethylthiazole-2-yl]-2,5-diphenyltetrazolium bromide by the mitochondria of the viable cells, added at 4 hours prior to completion of the culturing, with 100% proliferation defined as the maximum proliferation of T cells induced by recombinant human IL-1, 0% defined as proliferation with no addition of IL-1, and the units of the sample defined as the degree of dilution of the sample which caused 50% proliferation of the T cells. […]

neutrophils = test: Inhibition of active oxygen release from fMLP-stimulated human neutrophils (CLA chemiluminescence); type: cell-based; settings: 10 μm (so in the source)
Experimental: Neutrophils are known to ingest foreign bodies for their removal and to produce active oxygen and digestive enzymes, as a biological defense mechanism. However, during chronic inflammation, etc., the active oxygen and digestive enzymes produced by neutrophils also damage normal tissue, and are thought to further reinforce inflammation. Here, the effects of the compounds according to the present invention against the release of active oxygen from neutrophils were determined in the following manner.
Using 3.8% sodium citrate as an anticoagulant, 50 ml of blood was taken from a human vein. […] Of these neutrophils, 1×10^5 cells were incubated at 37° C. with […] of the stimulant, formyl-methionyl-leucyl-phenylalanine (fMLP), and at the same time the compounds according to the present invention were added thereto and the production of active oxygen was measured. For the measurement of the active oxygen, 2-methyl-6-phenyl-3,7-dihydroimidazo [1,2a]pyrazine-3-one (CLA) was reacted therewith resulting in excited carbonyl compounds, and utilizing the phenomenon whereby light is emitted at 380 nm during their transition to ground state, the maximum luminescence intensity was measured with a luminometer. The inhibition rate against active oxygen production was calculated according to the following equation. […]

Row | Compound | Inhibition rate of osteoclasia with respect to control group (adjuvant arthritis) [%] | Inhibition rate of edema with respect to control group (adjuvant arthritis; left paw, 17th day) [%] | Inhibition rate of edema with respect to control group (adjuvant arthritis; left paw, 21st day) [%] | Inhibition rate of edema with respect to control group (adjuvant arthritis; right paw, 17th day) [%] | Inhibition rate of edema with respect to control group (adjuvant arthritis; right paw, 21st day) [%] | Inhibition rate (resorption pit formation) with respect to control (osteoclasts; 10 μM) [%] | Inhibition rate (resorption pit formation) with respect to control (osteoclasts; 100 μM) [%] | proteoglycan count in cell layer relative to count at initial addition of inorganic sulfuric acid (Rabbit cartilage cells; not stimulated 0.45, IL-1-stimulated control 0.11) | proteoglycan count in supernatant relative to count at initial addition of inorganic sulfuric acid (Rabbit cartilage cells; not stimulated 0.63, IL-1-stimulated control 1.06) | inhibition at 100 µM [1] [%] | Active oxygen production inhibition rate (neutrophils) [%] | Inhibition rate of edema with respect to control group (adjuvant arthritis; left paw, 16th day) [%] | Inhibition rate of edema with respect to control group (adjuvant arthritis; right paw, 16th day) [%]
1 | O=P(O)(O)C(Sc1ccc2ccccc2c1)P(=O)(O)O [Example 2, 2-naphthylthiomethane Diphosphonic Acid] | 75.2 | 76.8 | 94.5 | 35.2 | 44.3 | 18.8 ± 6.23 | 92.1 ± 0.43 | 0.31 ± 0.011 | 0.78 ± 0.015 | 41.7 | 29.4 ± 6.58 |  | 
2 | O=P(O)(O)C(Sc1ccc2cc(O)ccc2c1)P(=O)(O)O [Example 6, 6-Hydroxy-2-naphthylthiomethanediphosphonic Acid] | 60.3 |  | 117.3 |  | 39.9 | 30.6 ± 12.5 | 90.8 ± 1.33 |  |  |  |  | 85.6 | 31.8
3 | COc1ccc2cc(SC(P(=O)(O)O)P(=O)(O)O)ccc2c1 [Example 4, 6-Methoxy-2-naphthylthiomethanediphosphonic Acid] | 55.2 | 80.0 | 93.0 | 40.8 | 33.4 | 47.7 ± 2.18 | 94.8 ± 1.04 |  |  |  |  |  | 

— patent publication US5618804A, “Methanediphosphonic acid derivative, process for production thereof and use for pharmaceuticals” (Toray Industries, Inc., priority 1992, dated 1997)
